According to patent US7250389B1, “Antifungal compound and process for producing the same” (Meiji Seika Kaisha, Ltd., priority 1998, dated 2007):
Like-named read-outs stand apart in the source and are kept apart here.

Tests used:
[1] = system: rice blast fungi (Pyricularia oryzae); type: in vivo
[2] = system: cucumber anthracnose fungi (Colletotricum lagenarium); type: in vivo; details: 200 ppm spray; cucumber seedlings; seven days after inoculation
[3] = system: cucumber downy mildew (pathogenic fungi: Peseudoperonocpora cubensis); assay: Test on effect of protecting cucumber against downy mildew; type: in vivo; details: 200 ppm spray; cucumber seedlings; seven days after inoculation
Description: Cucumber seedlings (variety: Suyo) of first leaf development stage raised in each of plastic pots containing compost were provided. […] The agent was air dried. Thereafter, a conidial suspension, which had been previously prepared by scraping lesion portions on the undersurface of cucumber suffering from cucumber downy mildew (pathogenic fungi: […] cubensis), was evenly inoculated by spraying. The pots were then kept under moist chamber conditions at 20° C. for 24 hr to perform infection. Thereafter, they were transferred to an environment control room kept at 18° C. at night and at 22° C. in the daytime to induce the disease.

[4] = system: cucumber anthracnose fungi (Colletotricum lagenarium); assay: Confirmation test on persistence of the effect of protecting cucumber against anthracnose; type: in vivo; details: for Protective value, Plot 2: inoculation on the day subsequent to holding under fluorescent lamp; for Protective value, Plot 3: inoculation on the day subsequent to holding under sunlight; for Protective value, Plot 1: inoculation on the same day as application
Text: Cucumber seedlings (variety: Suyo) of first leaf development stage raised in each of plastic pots containing compost were provided. […] The agent was air dried. On the same day or 24 hr after the air drying, a conidial suspension of cucumber anthracnose fungi (Colletotricum lagenarium), which had been previously cultured in a potato soup agar medium, was evenly inoculated by spraying. […] Experimental Plots: Plot 1: Plot subjected to inoculation on the same day as application: Inoculation was carried out on the same day as the air drying, and the pots were allowed to stand under moist chamber conditions at 26° C. for 24 hr and then allowed to stand for 7 days in an environment control room kept at 18° C. at night and at 25° C. in the daytime. Plot 2: Plot subjected to inoculation on the day subsequent to holding under fluorescent lamp: After the air drying, the pots were placed in an environment control room under an indoor fluorescent lamp (the control room being kept at 18° C. at night and at 25° C. in the daytime with the fluorescent lamp being turned on for 8 hr in the daytime). 24 hr after the application of the agent, inoculation was carried out. Thereafter, the pots were allowed to stand under moist chamber conditions at 26° C. for 24 hr and then allowed to stand for 7 days in an environment control room kept at 18° C. at night and at 25° C. in the daytime. Plot 3: Plot subjected to inoculation on the day subsequent to holding under sunlight: After the air drying, the pots were placed outdoors under sunlight in the daytime (8 hr) and then allowed to stand in an environment control room kept at 18° C. 24 hr after the application of the agent, inoculation was carried out. Thereafter, the pots were allowed to stand under moist chamber conditions at 26° C. for 24 hr and then allowed to stand for 7 days in an environment control room kept at […] at night and at 25° C. in the daytime.

[5] = Photostability test (percentage residue as determined by HPLC); type: physicochemical; details: thin film
Description: In consideration of use in agricultural chemicals, the following test was carried out to obtain data on photostability against exposure to sunlight. Date and Time of Test: First: 5 hr from 12:00 to 17:00 on May 26, 1997 Second: 6 hr from 10:00 to 16:00 on May 28, 1997 Place: For both tests, Odawara-shi, Kanagawa Weather: For both tests, fine […] Acetone was shortly evaporated. As a result, each sample was brought into a white thin film. The films thus obtained were exposed to sunlight. After the completion of exposure to sunlight, the residual amount of UK-2A and the residual amount of the compound of Example 18 were quantitatively determined by HPLC (column: YMC-PACKODS-AS-56.0×150 mm (A-312)), mobile phase: acetonitrile-water=70 : 30 (v/v), detection wavelength: 254 nm).

blast (rice seedlings) = assay: Photostability test (effect of protecting rice seedlings against blast, outdoors); type: in vivo; details: 200 ppm, 100 mL per m^2; outdoor rice seedlings; lesion area 19 days after application
Text: Rice seedlings of three-leaf stage (variety: Koshihikari) raised outdoors in an upland field bed (1 m×1 m) for rice seedlings were covered with a vinyl tunnel, only at night, with ears of rice suffering from blast being suspended (height 40 cm) to infect rice seedlings with blast. After the incipient infection was confirmed, agent solutions having an agent concentration of 200 ppm prepared by varying the agent concentration by the method as described in Test Example 2 each were applied in an amount of 100 mL per m^2 by means of a sprayer. For one week after the application of the agent, the rice seedlings were covered with the vinyl tunnel at night to promote the infection. 19 days after the application of the agent, the lesion area of the leaf was measured, and the protective value was calculated by the following equation.
Protective value=(1−average lesion area of treated plot)/lesion area of untreated plot)×100

Question: What does the source list for `CCCCCCC1C(=O)OC(C)C(NC(=O)c2cccc(NC=O)c2O)C(=O)OC(C)C1OC(=O)CC(C)C` (stereo not drawn) [Antimycin A, reference compound]?
Answer: Protective value ([1]; 100 ppm spray, rice seedlings, lesions counted seven days after inoculation): 83; Protective value [2]: 17

Question: With `COc1cccc(C(=O)N[C@H]2COC(=O)[C@H](Cc3ccccc3)[C@@H](OC(=O)C(C)C)[C@H](C)OC2=O)c1O` [Ex. 38, (2R,3R,4S,7S)-7-(3-Methoxysalicylamino)-2-benzyl-5,9-dioxa-3-isobutyryloxy-4-methyl-1,6-cyclononanedione] as the compound, how does the Protective value ([1]; in vivo) read?
Answer: Its Protective value is 83.

Question: With `CC(C)C(=O)O[C@H]1[C@H](C)OC(=O)[C@@H](NC(=O)c2cccc([N+](=O)[O-])c2O)COC(=O)[C@@H]1Cc1ccccc1` [Ex. 40, (2R,3R,4S,7S)-7-(3-Nitrosalicyl)amino-2-benzyl-5,9-dioxa-3-isobutyryloxy-4-methyl-1,6-cyclononanedione] as the compound, how does the Protective value [3] read?
Answer: The Protective value was 100.

Question: What does the source list for `CC(C)C(=O)O[C@H]1[C@H](C)OC(=O)[C@@H](NC(=O)c2cccnc2O)COC(=O)[C@@H]1Cc1ccccc1` [Ex. 4, (2R,3R,4S,7S)-7-(2-Hydroxynicotinylamino)-2-benzyl-5,9-dioxa-3-isobutyryloxy-4-methyl-1,6-cyclononanedione]?
Answer: Protective value ([1]; in vivo): 86; Protective value [3]: 78

Question: For `CC(C)C(=O)O[C@H]1[C@H](C)OC(=O)[C@@H](NC(=O)c2nc3ccccc3nc2O)COC(=O)[C@@H]1Cc1ccccc1` [Ex. 8, (2R,3R,4S,7S)-7-(3-Hydroxy-2-quinoxalinecarboxylamino)-2-benzyl-5,9-dioxa-3-isobutyryloxy-4-methyl-1,6-cyclononanedione], which Protective value ([1]; in vivo) is on record?
Answer: The Protective value was 100.

Question: What about the Protective value [2] of the same compound?
Answer: Its Protective value is 100.

Question: With `CC(C)C(=O)O[C@H]1[C@H](C)OC(=O)[C@@H](NC(=O)c2cccc(N)c2O)COC(=O)[C@@H]1Cc1ccccc1` [Ex. 41, (2R,3R,4S,7S)-7-(3-Aminosalicyl)amino-2-benzyl-5,9-dioxa-3-isobutyryloxy-4-methyl-1,6-cyclononanedione] as the compound, how does the Protective value ([1]; in vivo) read?
Answer: Its Protective value is 86.

Question: And the Protective value [2]?
Answer: Its Protective value is 100.

Question: And the Protective value [3]?
Answer: The Protective value was 88.

Question: For `CC(C)C(=O)O[C@H]1[C@H](C)OC(=O)[C@@H](NC(=O)c2cccc(O)n2)COC(=O)[C@@H]1Cc1ccccc1` [Ex. 5, (2R,3R,4S,7S)-7-(6-Hydroxypicolinylamino)-2-benzyl-5,9-dioxa-3-isobutyryloxy-4-methyl-1,6-cyclononanedione], which Protective value ([1]; in vivo) is on record?
Answer: The Protective value was 90.

Question: What about the Protective value [3] of the same compound?
Answer: The Protective value was 100.

Question: Which Protective value [2] does the source give for `CC(C)C(=O)O[C@H]1[C@H](C)OC(=O)[C@@H](NC(=O)c2cc(Cl)ccc2O)COC(=O)[C@@H]1Cc1ccccc1` [Ex. 46, (2R,3R,4S,7S)-7-(5-Chlorosalicyl)amino-2-benzyl-5,9-dioxa-3-isobutyryloxy-4-methyl-1,6-cyclononanedione] here?
Answer: Its Protective value is 100.

Question: With `COc1ccnc(C(=O)N[C@H]2COC(=O)[C@H](Cc3ccccc3)[C@@H](OC(=O)C(C)C)[C@H](C)OC2=O)c1OC(C)=O` [Ex. 18, (2R,3R,4S,7S)-7-(3-Acetoxy-4-methoxypicolinylamino)-2-benzyl-5,9-dioxa-3-isobutyryloxy-4-methyl-1,6-cyclo-nonanedione] as the compound, how does the “Protective value, Plot 2” value ([4]; 10 ppm) read?
Answer: Its value is 93.

Question: What about the “Protective value, Plot 3” value ([4]; 10 ppm) of the same compound?
Answer: Its value is 60.

Question: And the “Protective value, Plot 1” value ([4]; 10 ppm)?
Answer: The value was 67.

Question: And the “Protective value, Plot 2” value ([4]; 30 ppm)?
Answer: Its value is 93.

Question: What about the “Protective value, Plot 3” value ([4]; 30 ppm) of the same compound?
Answer: The value was 80.

Question: What about the “Protective value, Plot 1” value ([4]; 30 ppm) of the same compound?
Answer: The value was 67.

Question: And the “Protective value, Plot 2” value ([4]; 100 ppm)?
Answer: Its value is 93.

Question: What about the “Protective value, Plot 3” value ([4]; 100 ppm) of the same compound?
Answer: The value was 93.

Question: And the “Protective value, Plot 1” value ([4]; 100 ppm)?
Answer: Its value is 87.

Question: And the “residual effect under sunlight compared with UK-2A” value ([4]; plot 3)?
Answer: Its value is “much superior to UK-2A”.

Question: What about the “difference in protective value between UK-2A and the compound of Example 18” value ([4]; plots 1 and 2) of the same compound?
Answer: Its value is “no significant difference”.

Question: And the “Residual amount after exposure to sunlight” value ([5]; First test: 5 hr sunlight)?
Answer: The value was 98%.

Question: What about the “Residual amount after exposure to sunlight” value ([5]; Second test: 6 hr sunlight) of the same compound?
Answer: The value was 93%.

Question: And the Protective value (blast (rice seedlings))?
Answer: Its Protective value is 95.

Question: Which Protective value [3] does the source give for `CC(C)C(=O)O[C@H]1[C@H](C)OC(=O)[C@@H](NC(=O)c2cc(NC=O)ccc2O)COC(=O)[C@@H]1Cc1ccccc1` [Ex. 52, (2R,3R,4S,7S)-7-(5-Formylaminosalicyl)amino-2-benzyl-5,9-dioxa-3-isobutyryloxy-4-methyl-1,6-cyclononanedione] here?
Answer: Its Protective value is 100.

Question: Which Protective value ([1]; in vivo) does the source give for `CC(C)C(=O)O[C@H]1[C@H](C)OC(=O)[C@@H](NC(=O)c2ccccc2O)COC(=O)[C@@H]1Cc1ccccc1` [Ex. 39, (2R,3R,4S,7S)-7-Salicylamino-2-benzyl-5,9-dioxa-3-isobutyryloxy-4-methyl-1,6-cyclononanedione] here?
Answer: Its Protective value is 98.

Question: Which results are given for `COc1ccnc(C(=O)N[C@H]2COC(=O)[C@H](Cc3ccccc3)[C@@H](OC(=O)C(C)C)[C@H](C)OC2=O)c1O` [UK-2A, reference compound]?
Answer: Protective value, Plot 2 ([4]; 10 ppm): 93; Protective value, Plot 3 ([4]; 10 ppm): 27; Protective value, Plot 1 ([4]; 10 ppm): 80; Protective value, Plot 2 ([4]; 30 ppm): 100; Protective value, Plot 3 ([4]; 30 ppm): 60; Protective value, Plot 1 ([4]; 30 ppm): 100; Residual amount after exposure to sunlight ([5]; First test: 5 hr sunlight): 33%; Residual amount after exposure to sunlight ([5]; Second test: 6 hr sunlight): 64%; Protective value (blast (rice seedlings)): 63
